{
  "source": "patent US20260098072A1",
  "about": "“METHODS OF STIMULATING APPETITE AND/OR INCREASING BODY WEIGHT USING NON-NATURALLY OCCURRING MELANOCORTIN RECEPTOR ANTAGONIST ANALOGS” (Endevica Bio, Inc., priority 2022, published 2026)",
  "key": {"[1]": {"test_system": "urethane-anesthetized rats", "assay": "Cardiovascular effects (MAP, heart rate, ECG) in urethane-anesthetized rats", "protocol": "These studies were performed in urethane-anesthetized rats, since anesthesia is required for six-lead ECG monitoring. […] Initial selection of doses was guided by FDA exploratory IND studies with a recommendation for at least a 100-fold excess of the human dose."}, "Lewis sarcoma rat model": {"test_system": "Lewis sarcoma rat model", "assay": "Lewis sarcoma rat model of cancer cachexia", "type": "in vivo", "details": "low and high dose", "description": "This sarcoma is an aggressive form of cancer that produces significant cachexia. Popp et al., Cancer 49 (6): 1212-1220 (1982). In the protocol, “treatment” began 8-days after tumor implantation, with a significant decrease in food intake from baseline. Body composition was determined by NMR prior to tumor implantation, and on the final day of the experiment after tumor resection, by ECHO MRI (NMR). Tumor implantation produces cachexia on or about the sixth day. The non-naturally occurring melanocortin analog or saline was administered after day 8 and continued through day 12."}},
  "note": "Positions of bridges follow the written chain, without caps; N, C: chain ends. Non-standard residues stand in square brackets, D forms with d. Residues, ends and D or L forms follow the SMILES beside them. d2Nal = N[C@H](Cc1ccc2ccccc2c1)C(=O)O; Nle = CCCC[C@H](N)C(=O)O",
  "data": [
    {"compound": "CCCC[C@H](NC(C)=O)C(=O)N[C@H]1CC(=O)NCCCC[C@@H](C(=O)O)NC(=O)[C@H](Cc2c[nH]c3ccccc23)NC(=O)[C@H](CCCN=C(N)N)NC(=O)[C@@H](Cc2ccccc2)NC(=O)[C@H](Cc2cnc[nH]2)NC1=O", "note": "[Bremelanotide (PT-141), Ac-Nle-c[Asp-His-DPhe-Arg-Trp-Lys]-COOH]", "values": [
      {"measurement": "Duration", "setting": "[1]; 250 nmol", "result": "140 ± 53", "unit": "min"},
      {"measurement": "Peak Heart Rate Response (BPM)", "setting": "[1]; 250 nmol", "result": "44 ± 6", "unit": "BPM"},
      {"measurement": "Peak MAP Response (Δ mm Hg)", "setting": "[1]; 250 nmol", "result": "32 ± 6", "unit": "mm Hg"},
      {"measurement": "MAP after lethal dose", "setting": "[1]; 900 nmol/kg IV, baseline MAP 80 mmHg", "result": 140, "unit": "mmHg"},
      {"measurement": "lethal dose", "setting": "[1]; IV", "result": 900, "unit": "nmol/kg"},
      {"measurement": "ECG tracing (lead 2)", "setting": "[1]; IV 600 nmol/kg", "result": "inverted P-wave"}
    ]},
    {"compound": "CCCC[C@H](NC(=O)[C@H](Cc1ccc(O)cc1)NC(=O)[C@H](CO)NC(C)=O)C(=O)N[C@@H](CCC(=O)O)C(=O)N[C@@H](Cc1c[nH]cn1)C(=O)N[C@H](Cc1ccccc1)C(=O)N[C@@H](CCCNC(=N)N)C(=O)N[C@@H](Cc1c[nH]c2ccccc12)C(=O)NCC(=O)N[C@@H](CCCCN)C(=O)N1CCC[C@H]1C(=O)N[C@H](C(N)=O)C(C)C", "note": "[MT-I, Ac-Ser-Tyr-Nle-Glu-His-DPhe-Arg-Trp-Gly-Lys-Pro-Val-NH2] (Ac-SY[Nle]EH[dF]RWGKPV-NH2)", "values": [
      {"measurement": "Duration", "setting": "[1]; 250 nmol", "result": 0, "unit": "min"},
      {"measurement": "Peak Heart Rate Response (BPM)", "setting": "[1]; 250 nmol", "result": "0/0 BPM"},
      {"measurement": "Peak MAP Response (Δ mm Hg)", "setting": "[1]; 250 nmol", "result": "0/0 mm Hg"}
    ]},
    {"compound": "O=C(N[C@H](Cc1ccc(Cl)cc1)C(=O)N1CCC(Cn2cncn2)(C2CCCCC2)CC1)[C@H]1Cc2ccccc2CN1", "note": "[THIQ, N-[(3R)-1,2,3,4-tetrahydroisoquinolinium-3-ylcarbonyl]-(1R)-1-(4-chlorobenzyl)-2-[4-cyclohexyl-4-(1H-1,2,4-triazol-1-ylmethyl)piperidin-1-yl]-2-oxoethylamine]", "values": [
      {"measurement": "Duration", "setting": "[1]; 300 nmol", "result": "19 ± 4", "unit": "min"},
      {"measurement": "Peak Heart Rate Response (BPM)", "setting": "[1]; 300 nmol", "result": "81 ± 09", "unit": "BPM"},
      {"measurement": "Peak MAP Response (Δ mm Hg)", "setting": "[1]; 300 nmol", "result": "22 ± 11", "unit": "mm Hg"}
    ]},
    {"compound": "Ac-Nle-c[Asp-Pro-dNal(2′)-Arg-Trp-Lys]-dVal-dPro-NH2 (Ac-[Nle]DP[d2Nal]RWK[dV][dP]-NH2; lactam 2-7) [TCMCB07]", "values": [
      {"measurement": "gastrocnemius mass", "setting": "Lewis sarcoma rat model", "result": "preservation of gastrocnemius mass"}
    ]}
  ]
}
